Each compound was assayed on PKB Ser473 phosphorylation in Rat1-myr-HA-p110 alpha cells (assay: Reverse protein array, PKB Ser473 phosphorylation in Rat1-myr-HA-p110 alpha cells). Conditions: Rattus norvegicus, 0.5 h, 30 minutes compound incubation, read-out: p-PKB/IC50_alpha.
Type: cell-based

Row | Compound | IC50 [nM]
1 | COc1ncccc1-n1c(=O)n(C)c2cnc3ccc(-c4ccc(C(N)=O)cc4)cc3c21 [Example 1.6, 4-[1-(2-Methoxy-pyridin-3-yl)-3-methyl-2-oxo-2,3-dihydro-1H-imidazo[4,5-c]quinolin-8-yl]-benzamide] | 6.56
2 | COc1ccc(-c2ccc3ncc4c(c3c2)n(-c2ncccc2C)c(=O)n4C)cc1OC [Example 3.10, 8-(3,4-Dimethoxy-phenyl)-3-methyl-1-(3-methyl-pyridin-2-yl)-1,3-dihydro-imidazo[4,5-c]quinolin-2-one] | 78.3
3 | Cc1ncccc1-n1c(=O)n(C)c2cnc3ccc(-c4cnc(N(C)C)nc4)cc3c21 [Example 2.15, 8-(2-Dimethylamino-pyrimidin-5-yl)-3-methyl-1-(2-methyl-pyridin-3-yl)-1,3-dihydro-imidazo[4,5-c]quinolin-2-one] | 72.4
4 | Cc1cccnc1-n1c(=O)n(C)c2cnc3ccc(-c4ccc(N(C)C)nc4)cc3c21 [Example 3.11, 8-(6-Dimethylamino-pyridin-3-yl)-3-methyl-1-(3-methyl-pyridin-2-yl)-1,3-dihydro-imidazo[4,5-c]quinolin-2-one] | 372
5 | CCOc1ccc(-c2ccc3ncc4c(c3c2)n(-c2cnccc2C)c(=O)n4C)cn1 [Example 4.2, 8-(6-Ethoxy-pyridin-3-yl)-3-methyl-1-(4-methyl-pyridin-3-yl)-1,3-dihydro-imidazo[4,5-c]quinolin-2-one] | 47.3
6 | Cc1ncccc1-n1c(=O)n(C)c2cnc3ccc(-c4cnc(N)c(C(F)(F)F)c4)cc3c21 [Example 2.11, 8-(6-Amino-5-trifluoromethyl-pyridin-3-yl)-3-methyl-1-(2-methyl-pyridin-3-yl)-1,3-dihydro-imidazo[4,5-c]quinolin-2-one] | 7.02
7 | CCOc1ncc(-c2ccc3ncc4c(c3c2)n(-c2cccnc2C)c(=O)n4C)cn1 [Example 2.5, 8-(2-Ethoxy-pyrimidin-5-yl)-3-methyl-1-(2-methyl-pyridin-3-yl)-1,3-dihydro-imidazo[4,5-c]quinolin-2-one] | 49
8 | Cc1cccnc1-n1c(=O)n(C)c2cnc3ccc(-c4ccc(C(N)=O)cc4)cc3c21 [Example 3.3, 4-[3-Methyl-1-(3-methyl-pyridin-2-yl)-2-oxo-2,3-dihydro-1H-imidazo[4,5-c]quinolin-8-yl]-benzamide] | 178
9 | Cc1cccnc1-n1c(=O)n(C)c2cnc3ccc(-c4cnc(N)c(C(F)(F)F)c4)cc3c21 [Example 3.12, 8-(6-Amino-5-trifluoromethyl-pyridin-3-yl)-3-methyl-1-(3-methyl-pyridin-2-yl)-1,3-dihydro-imidazo[4,5-c]quinolin-2-one] | 13.7
10 | COc1ccc(-c2ccc3ncc4c(c3c2)n(-c2cccnc2C)c(=O)n4C)cn1 [Example 2.12, 8-(6-Methoxy-pyridin-3-yl)-3-methyl-1-(2-methyl-pyridin-3-yl)-1,3-dihydro-imidazo[4,5-c]quinolin-2-one] | 29.8
11 | COc1ncccc1-n1c(=O)n(C)c2cnc3ccc(-c4cnc5[nH]ccc5c4)cc3c21 [Example 1.2, 1-(2-Methoxy-pyridin-3-yl)-3-methyl-8-(1H-pyrrolo[2,3-b]pyridin-5-yl)-1,3-dihydro-imidazo[4,5-c]quinolin-2-one] | 5.7

Second part, the compound after the results:

Row | IC50 [nM] | Compound
12 | 197 | COc1cc(-c2ccc3ncc4c(c3c2)n(-c2ccc(N3CC(O)C3)nc2C)c(=O)n4C)cnc1CO [Example 29.5, 1-[6-(3-Hydroxy-azetidin-1-yl)-2-methyl-pyridin-3-yl]-8-(6-hydroxymethyl-5-methoxy-pyridin-3-yl)-3-methyl-1,3-dihydro-imidazo[4,5-c]quinolin-2-one]
13 | < 4.57 | CNc1ncc(-c2ccc3ncc4c(c3c2)n(-c2ccc(N3CC[C@H](O)C3)nc2C)c(=O)n4C)cn1 [Example 32.1, 1-[6-((S)-3-Hydroxy-pyrrolidin-1-yl)-2-methyl-pyridin-3-yl]-3-methyl-8-(2-methylamino-pyrimidin-5-yl)-1,3-dihydro-imidazo[4,5-c]quinolin-2-one]
14 | 7.3 | CCNc1cc(-c2ccc3ncc4c(c3c2)n(-c2ccc(N3CCC3)nc2C)c(=O)n4C)cnc1CO [Example 23.8, 1-(6-Azetidin-1-yl-2-methyl-pyridin-3-yl)-8-(5-ethylamino-6-hydroxymethyl-pyridin-3-yl)-3-methyl-1,3-dihydro-imidazo[4,5-c]quinolin-2-one]
15 | 35.8 | Cc1nc(N2CC[C@H](O)C2)ccc1-n1c(=O)n(C)c2cnc3ccc(-c4cncc(OC(C)C)c4)cc3c21 [Example 32.8, 1-[6-((S)-3-Hydroxy-pyrrolidin-1-yl)-2-methyl-pyridin-3-yl]-8-(5-isopropoxy-pyridin-3-yl)-3-methyl-1,3-dihydro-imidazo[4,5-c]quinolin-2-one]
16 | < 4.57 | Cc1nc(N2CCN(C)C(=O)C2)ccc1-n1c(=O)n(C)c2cnc3ccc(-c4cnc(N)c(C(F)(F)F)c4)cc3c21 [Example 21.1, 8-(6-Amino-5-trifluoromethyl-pyridin-3-yl)-3-methyl-1-[2-methyl-6-(4-methyl-3-oxo-piperazin-1-yl)-pyridin-3-yl]-1,3-dihydro-imidazo[4,5-c]quinolin-2-one]
17 | 17.7 | CCOc1cc(-c2ccc3ncc4c(c3c2)n(-c2ccc(OCCOC)nc2C)c(=O)n4C)cnc1COC [Example 22.1, 8-(5-Ethoxy-6-methoxymethyl-pyridin-3-yl)-1-[6-(2-methoxy-ethoxy)-2-methyl-pyridin-3-yl]-3-methyl-1,3-dihydro-imidazo[4,5-c]quinolin-2-one]
18 | 21.9 | CNc1ncc(-c2ccc3ncc4c(c3c2)n(-c2ccc(N3CC(O)C3)nc2C)c(=O)n4C)cc1F [Example 29.3, 8-(5-Fluoro-6-methylamino-pyridin-3-yl)-1-[6-(3-hydroxy-azetidin-1-yl)-2-methyl-pyridin-3-yl]-3-methyl-1,3-dihydro-imidazo[4,5-c]quinolin-2-one]
19 | 10 | CNc1ncc(-c2ccc3ncc4c(c3c2)n(-c2ccc(N3CC[C@H](O)C3)nc2C)c(=O)n4C)cc1C(F)(F)F [Example 32.5, 1-[6-((S)-3-Hydroxy-pyrrolidin-1-yl)-2-methyl-pyridin-3-yl]-3-methyl-8-(6-methylamino-5-trifluoromethyl-pyridin-3-yl)-1,3-dihydro-imidazo[4,5-c]quinolin-2-one]
20 | 33.9 | COc1nc(N2CCNCC2)ccc1-n1c(=O)n(C)c2cnc3ccc(-c4cnc(N)c(C(F)(F)F)c4)cc3c21 [Example 9.2, 8-(6-Amino-5-trifluoromethyl-pyridin-3-yl)-1-(2-methoxy-6-piperazin-1-yl-pyridin-3-yl)-3-methyl-1,3-dihydro-imidazo[4,5-c]quinolin-2-one]
21 | 5.7 | CNc1ccc(-c2ccc3ncc4c(c3c2)n(-c2ccc(N3CCC3)nc2C)c(=O)n4C)cn1 [Example 23.4, 1-(6-Azetidin-1-yl-2-methyl-pyridin-3-yl)-3-methyl-8-(6-methylamino-pyridin-3-yl)-1,3-dihydro-imidazo[4,5-c]quinolin-2-one]

— US20100311714A1, “1H-IMIDAZO[4,5-c]QUINOLINONE COMPOUNDS” (priority 2009, published 2010)
